Experimental data published in US10590113B2, “6-hydroxy-4-oxo-1,4-dihydropyrimidine-5-carboxamides as APJ agonists” (priority 2016, dated 2020).

These compounds were tested against T1, human APJ receptor (Homo sapiens, UniProt P35414) (assay: Intracellular cAMP Accumulation Assay (APJ hcAMP, HTRF)). Settings: human APJ, cAMP accumulation; potency range class; read-out: hAPJ cAMP EC50 Potency range.
T1 construct: expressed in transfected cells; host or cells: HEK293
T1 sequence (P35414 1-380): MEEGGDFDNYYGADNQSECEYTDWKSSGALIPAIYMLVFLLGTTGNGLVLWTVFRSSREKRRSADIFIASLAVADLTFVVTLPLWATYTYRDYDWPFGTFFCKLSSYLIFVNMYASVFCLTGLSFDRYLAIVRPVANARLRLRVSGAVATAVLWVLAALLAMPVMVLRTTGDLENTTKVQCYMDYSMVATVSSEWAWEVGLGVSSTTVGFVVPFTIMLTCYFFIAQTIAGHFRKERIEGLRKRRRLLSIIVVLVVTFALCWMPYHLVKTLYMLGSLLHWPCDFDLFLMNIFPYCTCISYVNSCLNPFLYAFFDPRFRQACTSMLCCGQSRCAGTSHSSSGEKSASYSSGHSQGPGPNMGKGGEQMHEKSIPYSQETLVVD
Assay type: cell-based
Outline: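 Stably transfected HEK293 cells (5,000/well) incubated 30 min at room temperature with serially diluted compound, […] and 2 μM forskolin. cAMP measured by HTRF after 60 min with detection reagents, quantified against a cAMP standard curve; EC50 from variable-slope sigmoidal fit of inhibition of forskolin-stimulated cAMP.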

| SMILES | EC50 [nM] |
| --- | --- |
| CCc1cccc(CC)c1-n1c(COC(C)C)nc(O)c(C(=O)N2CCC(c3ccc(Cl)nc3)CC2)c1=O [Example 222, 5-[4-(6-chloropyridin-3-yl)piperidine-1-carbonyl]-3-(2,6-diethylphenyl)-6-hydroxy-2-[(propan-2-yloxy)methyl]-3,4-dihydropyrimidin-4-one] | 100 to 300 |
| COc1cccc(OC)c1-n1c(CC2CC2)nc(=O)c(C(=O)N2CCC(c3ccc(Cl)nc3)CC2)c1O [Example 227, 5-[4-(6-chloropyridin-3-yl)piperidine-1-carbonyl]-2-(cyclopropylmethyl)-1-(2,6-dimethoxyphenyl)-6-hydroxy-1,4-dihydropyrimidin-4-one] | 10 to 100 |
| COc1cccc(OC)c1-n1c(-c2csc(C)n2)nc(=O)c(C(=O)N2CCC(Oc3cccc(F)c3F)CC2)c1O [Example 277, 5-[4-(2,3-difluorophenoxy)piperidine-1-carbonyl]-1-(2,6-dimethoxyphenyl)-6-hydroxy-2-(2-methyl-1,3-thiazol-4-yl)-1,4-dihydropyrimidin-4-one] | 0.01 to 10 |
| CCc1cccc(CC)c1-n1c(-c2ccn(C)n2)nc(=O)c(C(=O)N2CC[C@H](c3ccccc3)C2)c1O [Example 283, 1-(2,6-diethylphenyl)-6-hydroxy-2-(1-methyl-1H-pyrazol-3-yl)-5-[(3R)-3-phenylpyrrolidine-1-carbonyl]-1,4-dihydropyrimidin-4-one] | 0.01 to 10 |
| CCn1ccc(-c2nc(=O)c(C(=O)N3CC[C@H](c4ccccc4)C3)c(O)n2-c2c(OC)cccc2OC)n1 [Example 284, 1-(2,6-dimethoxyphenyl)-2-(1-ethyl-1H-pyrazol-3-yl)-6-hydroxy-5-[(3R)-3-phenylpyrrolidine-1-carbonyl]-1,4-dihydropyrimidin-4-one] | 0.01 to 10 |
| CCc1cccc(CC)c1-n1c(-c2ccn(C)n2)nc(=O)c(C(=O)N2CC[C@@H](c3ccccc3)C2)c1O [Example 285, 1-(2,6-diethylphenyl)-6-hydroxy-2-(1-methyl-1H-pyrazol-3-yl)-5-[(3S)-3-phenylpyrrolidine-1-carbonyl]-1,4-dihydropyrimidin-4-one] | 0.01 to 10 |
| CCn1ccc(-c2nc(=O)c(C(=O)N3CC[C@@H](c4ccccc4)C3)c(O)n2-c2c(OC)cccc2OC)n1 [Example 286, 1-(2,6-dimethoxyphenyl)-2-(1-ethyl-1H-pyrazol-3-yl)-6-hydroxy-5-[(3S)-3-phenylpyrrolidine-1-carbonyl]-1,4-dihydropyrimidin-4-one] | 0.01 to 10 |
| CCn1ccc(-c2nc(=O)c(C(=O)N3CC[C@@H](c4ccccc4)C3)c(O)n2-c2cccc(C(C)C)c2)n1 [Example 288, 2-(1-ethyl-1H-pyrazol-3-yl)-6-hydroxy-5-[(3S)-3-phenylpyrrolidine-1-carbonyl]-1-[3-(propan-2-yl)phenyl]-1,4-dihydropyrimidin-4-one] | 0.01 to 10 |
| CCc1cccc(CC)c1-n1c(-c2ccn(C(C)C)n2)nc(=O)c(C(=O)N2CC[C@@H](c3ccccc3)C2)c1O [Example 289, 1-(2,6-diethylphenyl)-6-hydroxy-5-[(3S)-3-phenylpyrrolidine-1-carbonyl]-2-[1-(propan-2-yl)-1H-pyrazol-3-yl]-1,4-dihydropyrimidin-4-one] | 0.01 to 10 |
| CCn1ccc(-c2nc(=O)c(C(=O)N3CC[C@H](c4ccccc4)C3)c(O)n2-c2cccc(C(C)C)c2)n1 [Example 291, 2-(1-ethyl-1H-pyrazol-3-yl)-6-hydroxy-5-[(3R)-3-phenylpyrrolidine-1-carbonyl]-1-[3-(propan-2-yl)phenyl]-1,4-dihydropyrimidin-4-one] | 0.01 to 10 |
| CCc1cccc(CC)c1-n1c(-c2csc(C(C)C)n2)nc(=O)c(C(=O)N2CC[C@@H](c3ccccc3)C2)c1O [Example 299, 1-(2,6-diethylphenyl)-6-hydroxy-5-[(3S)-3-phenylpyrrolidine-1-carbonyl]-2-[2-(propan-2-yl)-1,3-thiazol-4-yl]-1,4-dihydropyrimidin-4-one] | 0.01 to 10 |
| CCc1cccc(CC)c1-n1c(-c2csc(C)n2)nc(=O)c(C(=O)N2CC[C@H](c3ccccc3)C2)c1O [Example 301, 1-(2,6-diethylphenyl)-6-hydroxy-2-(2-methyl-1,3-thiazol-4-yl)-5-[(3R)-3-phenylpyrrolidine-1-carbonyl]-1,4-dihydropyrimidin-4-one] | 0.01 to 10 |
| CCc1cccc(CC)c1-n1c(-c2csc(C)n2)nc(=O)c(C(=O)N2CC[C@@H](c3ccccc3)C2)c1O [Example 303, 1-(2,6-diethylphenyl)-6-hydroxy-2-(2-methyl-1,3-thiazol-4-yl)-5-[(3S)-3-phenylpyrrolidine-1-carbonyl]-1,4-dihydropyrimidin-4-one] | 0.01 to 10 |
| CC[C@@H](c1ccccc1)n1c(-c2ccc(F)c(C)c2)nc(=O)c(C(=O)N2CC[C@H](c3ccccc3)C2)c1O [Example 314, 2-(4-fluoro-3-methylphenyl)-6-hydroxy-1-[(1S)-1-phenylpropyl]-5-[(3R)-3-phenylpyrrolidine-1-carbonyl]-1,4-dihydropyrimidin-4-one] | 0.01 to 10 |
| CCc1cccc(CC)c1-n1c(-c2ccn(C3CC3)n2)nc(=O)c(C(=O)N2CC[C@@H](c3ccccc3)C2)c1O [Example 316, 2-(1-cyclopropyl-1H-pyrazol-3-yl)-1-(2,6-diethylphenyl)-6-hydroxy-5-[(3S)-3-phenylpyrrolidine-1-carbonyl]-1,4-dihydropyrimidin-4-one] | 0.01 to 10 |
| CCc1cccc(CC)c1-n1c(-c2ccn(CC(C)C)n2)nc(=O)c(C(=O)N2CC[C@@H](c3ccccc3)C2)c1O [Example 317, 1-(2,6-diethylphenyl)-6-hydroxy-2-[1-(2-methylpropyl)-1H-pyrazol-3-yl]-5-[(3S)-3-phenylpyrrolidine-1-carbonyl]-1,4-dihydropyrimidin-4-one] | 10 to 100 |
| CCCc1nc(O)c(C(=O)N2CC[C@H](c3ccccc3)C2)c(=O)n1[C@@H](COC)c1ccccc1 [Example 329, 6-hydroxy-3-[(1R)-2-methoxy-1-phenylethyl]-5-[(3R)-3-phenylpyrrolidine-1-carbonyl]-2-propyl-3,4-dihydropyrimidin-4-one] | 10 to 100 |
| CCCc1nc(=O)c(C(=O)N2CC[C@@H](c3ccccc3)C2)c(O)n1[C@@H](COC)c1ccccc1 [Example 330, 6-hydroxy-3-[(1R)-2-methoxy-1-phenylethyl]-5-[(3S)-3-phenylpyrrolidine-l-carbonyl]-2-propyl-3,4-dihydropyrimidin-4-one] | 10 to 100 |
| CCCCc1nc(=O)c(C(=O)N2CCC(c3ncc(F)cc3F)C2)c(O)n1[C@@H](COC)c1ccccc1 (stereo partly drawn) [Example 349, 2-butyl-5-[3-(3,5-difluoropyridin-2-yl)pyrrolidine-1-carbonyl]-6-hydroxy-3-[(1R)-2-methoxy-1-phenylethyl]-3,4-dihydropyrimidin-4-one] | 0.01 to 10 |
| CCCCc1nc(=O)c(C(=O)N2CCC(c3ncc(Cl)cc3F)C2)c(O)n1[C@@H](COC)c1ccccc1 (stereo partly drawn) [Example 350, 2-butyl-5-[3-(5-chloro-3-fluoropyridin-2-yl)pyrrolidine-1-carbonyl]-6-hydroxy-3-[(1R)-2-methoxy-1-phenylethyl]-3,4-dihydropyrimidin-4-one] | 0.01 to 10 |
| CCCCc1nc(=O)c(C(=O)N2CCC(c3ncc(F)cc3F)C2)c(O)n1[C@H](c1cccc(C#N)c1)C1CC1 (stereo partly drawn) [Example 351, 3-[(S)-{2-butyl-5-[3-(3,5-difluoropyridin-2-yl)pyrrolidine-1-carbonyl]-4-hydroxy-6-oxo-1,6-dihydropyrimidin-1-yl}(cyclopropyl)methyl]benzonitrile] | 0.01 to 10 |
| CCCCc1nc(=O)c(C(=O)N2CCN(Cc3cccc(Cl)c3Cl)CC2)c(O)n1-c1c(OC)cccc1OC [Example 355, 2-butyl-5-(4-(2,3-dichlorobenzyl)piperazine-1-carbonyl)-1-(2,6-dimethoxyphenyl)-6-hydroxypyrimidin-4(1H)-one0.011] | 0.01 to 10 |

Same assay, conditions: human APJ, intracellular cAMP accumulation; read-out: hAPJ cAMP EC50 Potency range

| SMILES | EC50 [nM] |
| --- | --- |
| CCCCc1nc(=O)c(C(=O)N2CC[C@H](c3ccccc3)C2)c(O)n1[C@@H](C)c1ccc(F)cc1 [Example 157, 2-butyl-3-[(1S)-1-(4-fluorophenyl)ethyl]-6-hydroxy-5-[(3R)-3-phenylpyrrolidine-1-carbonyl]-3,4-dihydropyrimidin-4-one] | 100 to 300 |
| CCCCc1nc(=O)c(C(=O)N2CC[C@@H](c3ccccc3)C2)c(O)n1C(C)C [Example 159, 2-butyl-6-hydroxy-5-[(3S)-3-phenylpyrrolidine-1-carbonyl]-3-(propan-2-yl)-3,4-dihydropyrimidin-4-one] | 100 to 300 |
| COc1cccc(OC)c1-n1c(CCC2CC2)nc(=O)c(C(=O)N2CC=C(c3ccc(Cl)cn3)C2)c1O [Example 172, 5-[3-(5-chloropyridin-2-yl)-2,5-dihydro-1H-pyrrole-1-carbonyl]-2-(2-cyclopropylethyl)-1-(2,6-dimethoxyphenyl)-6-hydroxy-1,4-dihydropyrimidin-4-one] | 0.01 to 10 |
| COc1cccc(OC)c1-n1c(CCC2CC2)nc(=O)c(C(=O)N2CCN(Cc3cccc(F)c3F)CC2)c1O [Example 173, 2-(2-cyclopropylethyl)-5-{4-[(2,3-difluorophenyl)methyl]piperazine-1-carbonyl}-1-(2,6-dimethoxyphenyl)-6-hydroxy-1,4-dihydropyrimidin-4-one] | 0.01 to 10 |

Same assay, conditions: read-out: hAPJ cAMP EC50 Potency range

| SMILES | EC50 [nM] |
| --- | --- |
| CCCCc1nc(=O)c(C(=O)N2CCC(Oc3ccc(Cl)cc3)CC2)c(O)n1-c1c(OC)cccc1OC [Example 373, 2-butyl-5-(4-(4-chlorophenoxy)piperidine-1-carbonyl)-1-(2,6-dimethoxyphenyl)-6-hydroxypyrimidin-4(1H)-one] | 0.01 to 10 |
